Data on four substances can be found in article PMC5937145, “Synergism of Antimicrobial Frog Peptides Couples to Membrane Intrinsic Curvature Strain” (Biophysical Journal, 2018).

The test system of one data set is E. coli K12. The experiment in a line: MIC, inhibition of bacterial growth (turbidimetric, Bioscreen C). The data set is classed as cell-based, Escherichia coli. To be noted: E. coli K12, Mueller-Hinton broth without Ca2+, 37°C, no increment of turbidity after 48 h, CLSI guidelines. On the procedure:
To study the effect of magainins on metabolically active bacteria, we assessed the antimicrobial activity of the peptides by determining the MIC values according to Clinical and Laboratory Standards Institute (CLSI, formerly National Committee for Clinical Laboratory Standards) guidelines.
Inhibition of bacterial growth by frog peptides was determined using an automated turbidimetric-based system (Bioscreen C, Labsystem, Helsinki, Finland), which measures absorbance of cell cultures in 100-well plates at regular time intervals (λ = 580 nm). Assays were performed in Mueller-Hinton (MH) broth without Ca2+ (18) using Bioscreen polystyrene honeycomb 100-well plates. Briefly, serial dilutions of the AMPs or control antibiotics (gentamicin and ampicillin B) were made in MH broth and dispensed with a multi-pipette into […]
polystyrene honeycomb 100-well plates. E. coli K12 cells grown for 18–20 h on agar plates were suspended in saline adjusting the turbidity to an optical density at λ=565 nm (OD565) of 0.5 (~1 × 10^8 cells/mL) using a DEN-1B densitometer (Grant Instruments, Cambridge, UK).
A fifty-fold dilution of this E. coli suspension prepared in MH broth was mixed with 50 µL (1:1 volume ratio) of a given peptide solution by three times up and down pipetting. Resulting cell suspensions were grown at 37°C with continuous, low amplitude shaking. The turbidity was measured in intervals of 5 minutes (filter bandwidth: λ= 420 – 580 nm). MIC was considered as the minimum concentration of peptide that inhibited any increment of turbidity […]
2011. Studies on lactoferricin-derived Escherichia coli membrane-active peptides reveal differences in the mechanism of N-acylated versus nonacylated peptides. J Biol Chem […]
2. Broekhuyse, R. M. 1968. Phospholipids in tissues of the eye. […]
vinyl-ether phospholipids. Biochim Biophys Acta 152:307–315.
Chemistry and physics of lipids 154:64–67.
8. Israelachvili, J. N. 2011. Intermolecular and surface forces, 3rd ed. Academic Press, […]

Data set [1] is described as follows: ANTS/DPX leakage of POPE/POPG LUVs. The data set is classed as biochemical. To be noted: for Leakage: POPE/POPG LUVs, lipid 50 μM, pH 7.4, 37°C. How it is done: (§1) Large unilamellar vesicles (LUVs) of ∼100 nm size were prepared and assayed for AMP-induced fluorescence leakage as described previously ([23]). Intrinsic lipid curvatures were determined using a SAXSpace small-angle x-ray camera (Anton Paar, Graz, Austria) applying previously developed procedures ([24]). Monte Carlo (MC) simulations were performed using the Metropolis scheme and computationally efficient implicit-solvent coarse-grained models. Lipids were described by a three-bead model developed by Cooke and Deserno ([25]), and the peptide was modeled by a patchy spherocylinder ([26]). Free-energy calculations for peptide translocation were performed using the Wang-Landau method ([27]). For details of experimental and simulation procedures, see the Supporting Material. […]
Lipid films (20 mg total lipid) for dye-release experiments were prepared by mixing the appropriate amounts of dissolved phospholipids before evaporation of solvents under a stream of nitrogen and stored in vacuum overnight. After addition of Hepes buffer containing the fluorophor/quencher ANTS/DPX (10 mM Hepes, 68 mM NaCl, 12.5 mM ANTS, 45 mM DPX, pH 7.4), formation of lipid vesicles was achieved by equilibration at 15°C above the lipid’s melting temperature and intermittent vigorous vortex mixing. PE/PG-mixtures were additionally homogenized by six freeze/thaw-cycles. Large unilamellar vesicles (LUVs) were obtained by 25 cycles of extrusion of the hydrated liposomes through a polycarbonate filter (Millipore-IsoporeTM, Merck, Vienna) of 0.1 µm pore size above the lipid’s melting temperature. Non-encapsulated fluorophore and quencher were removed by size-exclusion chromatography using SephadexTM G-75 (Sigma-Aldrich, Vienna) gel as described earlier (1). LUVs were eluted with Hepes buffer (10 mM Hepes, 140 mM NaCl, pH 7.4). Liposomal lipids were quantified by the determination of lipid phosphorus according the method described by (2). The final LUV concentration for dye-release experiments was adjusted to 50 µM in Hepes buffer (10 mM Hepes, 140 mM NaCl, pH 7.4). […]
Leakage of the aqueous content of ANTS/DPX-loaded LUVs upon incubation with peptides was determined according to (9) and as detailed previously (1). Briefly, 2 ml of LUV suspension was filled into quartz cuvettes and equilibrated at 37°C for 5 minutes. Incremental amounts of peptide solutions prepared in Hepes buffer were added to the LUV suspension with µ-pipettes and mixed using a magnetic stirrer to achieve final peptide concentrations ranging from 0.016 - 1 μM, corresponding to peptide-to-lipid molar ratios from 1:3200 to 1:50. Fluorescence emission was recorded 5 minutes before and after the addition of peptides on a Cary Eclipse Fluorescence Spectrophotometer (Varian Inc., now Agilent Technologies, California, US) using an excitation wavelength of λex = 360 nm and an emission wavelength λem = 530 nm. The slit widths for excitation and emission monochromators were set to 10 nm.
(§2) Percentage of leakage was calculated from the fraction of the leakage (10) […]
(§3) where F is the measured fluorescence, F0 is the initial fluorescence without peptide, and Fmax is the fluorescence corresponding to 100% leakage gained by addition of 1% Triton X-100. […]
In order to verify the dimeric or monomeric state of peptides, 2 µg of peptides were dissolved in loading buffer without DTT and separated by a one-dimensional SDS-PAGE using 5 % stacking and 18 % separating gels according to the method of Laemmli (11). […]

The conditions of data set [2]: cited from earlier work. The source says: Table 2 Thermodynamics of AMP Insertion in PC Membranes According to the Wimley-White Hydrophobicity Scale | column: % helix in PC
Data set [3] in a line: ANTS/DPX leakage of POPC LUVs. The data set is classed as biochemical. The note with it: within studied concentration range 0.016-1 μM, lipid 50 μM, pH 7.4, 37°C, three independent measurements. On the procedure:
as §1
(§4) Lipid films (20 mg total lipid) for dye-release experiments were prepared by mixing the appropriate amounts of dissolved phospholipids before evaporation of solvents under a stream of nitrogen and stored in vacuum overnight. […] Liposomal lipids were quantified by the determination of lipid phosphorus according the method described by (2). […]
(§5) Leakage of the aqueous content of ANTS/DPX-loaded LUVs upon incubation with peptides was determined according to (9) and as detailed previously (1). […]
as §2

A short description of data set [4]: ANTS/DPX leakage of POPC/POPG LUVs. The note with it: 1 μM peptide, lipid 50 μM, pH 7.4, 37°C, three independent measurements. The data set is classed as biochemical. On the procedure:
as §1, §4, §5, §2

The conditions of data set [5]: cited from earlier work. The source says:
Intriguingly, however, cytoplasmic membranes of Gram-negative bacteria are enriched in lipids with negative intrinsic curvature, such as phosphatidylethanolamine (PE) ([20]). This prompted us to correlate membrane-permeabilizing activities of magainin monomers and dimers in different lipid-only model systems with various intrinsic curvatures J0 determined from small-angle x-ray scattering (SAXS). In particular, we studied the activity of L18W-PGLa and MG2a, as well as their analogs containing GGC linkers, which were used to form the L18W-PGLa-MG2a hybrid peptide (Fig. 1). The choice of L18W-PG ...
The source holds these as a separate data set.

Data set [6] is described as follows: ANTS/DPX leakage of lyso-PE/POPE/POPG LUVs. In kind it is biochemical. To be noted: 1 μM peptide, lipid 50 μM, pH 7.4, 37°C, three independent measurements. On the procedure: as §1, §4, §5, §2
Data set [7] can be described thus: ANTS/DPX leakage of POPC/Chol LUVs. The data set is classed as biochemical. To be noted: lipid 50 μM; for Leakage: dimers and mixture, highest concentration studied (1 μM), pH 7.4, 37°C. How it is done: as §1
Lipid films (20 mg total lipid) for dye-release experiments were prepared by mixing the appropriate amounts of dissolved phospholipids before evaporation of solvents under a stream of nitrogen and stored in vacuum overnight. After addition of Hepes buffer containing the fluorophor/quencher ANTS/DPX (10 mM Hepes, 68 mM NaCl, 12.5 mM ANTS, 45 mM DPX, pH 7.4), formation of lipid vesicles was achieved by equilibration at 15°C above the lipid’s melting temperature and intermittent vigorous vortex mixing. […] Liposomal lipids were quantified by the determination of lipid phosphorus according the method described by (2). […]
Leakage of the aqueous content of ANTS/DPX-loaded LUVs upon incubation with peptides was determined according to (9) and as detailed previously (1). […] Fluorescence emission was recorded 5 minutes before and after the addition of peptides on a Cary Eclipse Fluorescence Spectrophotometer (Varian Inc., now Agilent Technologies, California, US) using an excitation wavelength of λex = 360 nm and an emission wavelength λem = 530 nm. […]
as §2, §3

[8] abbreviates: individual peptides at concentrations above 0.25 μM up to 1 μM (remained at the same level), three independent measurements.
[9] abbreviates: dimers, plateau/final value at high peptide concentration (up to 1 μM).

Marks after values point to notes of the source that are not given here. Bridge positions count the residues as written; N and C are the ends. Ends that are not written are not given here. I, II: the chains in the order shown.

By MIC is commonly meant the smallest concentration in the dilution series that meets the test's criterion for growth inhibition. Low values mean greater potency, high ones weaker potency. Consider GIGKFLHSAKKFGKAFVGEIMNS-NH2 [MG2a], for which the MIC in the data set on E. coli K12 amounted to 62.5 µg/mL. In addition, in data set [1] (setting [8]), the Leakage is listed as ≤ 6%. The “% helix in PC” value in data set [2] is given as 83 ^a %.

In the case of GMASKAGAIAGKIAKVAWKAL-NH2 [L18W-PGLa], the Maximal leakage in data set [3] was ≤ 10%. The minimum inhibitory concentration (MIC) in the data set on E. coli K12 was ~31.25 µg/mL. In addition, the Leakage result in data set [4] is “full LUV leakage”; in data set [1] (setting [8]) it was ≤ 6%; in data set [6], “full LUV leakage”. The “Dye release from lipid vesicles compared to native PGLa” value in data set [5] is “almost identical to that induced by native PGLa”. Moreover, the “% helix in PC” value in data set [2] is on record as 72 ^b %.

For the substance “I: GIGKFLHSAKKFGKAFVGEIMNSGGC-NH2 / II: GIGKFLHSAKKFGKAFVGEIMNSGGC-NH2 (disulfide I:26-II:26 (inferred)) [MG2a homodimers]”, the MIC against E. coli K12 was found to be 7.8 µg/mL. Besides, the Leakage in data set [1] (setting [9]) was ~60%; in data set [7], “not able to induce significant dye release”.

For the substance “I: GMASKAGAIAGKIAKVAWKALGGC-NH2 / II: GMASKAGAIAGKIAKVAWKALGGC-NH2 (disulfide I:24-II:24) [L18W-PGLa homodimers]”, in the data set on E. coli K12, the MIC was ~7.8 µg/mL. For the same substance, the Leakage in data set [1] (setting [9]) is on record as ~100%. In data set [1] (POPE/POPG vesicles, DTT (40 μM) added to peptide solution before mixing with LUVs), the “Permeabilization capabilities after DTT reduction” value is on record as “identical with that of L18W-PGLa peptide”. Also, in data set [7], the Leakage is recorded as ~74% and the “Peptide concentration above which active (leakage)” value is > 0.1 µM.
